# Reference: patent US8440677B2, “Atropisomers of 2-purinyl-3-tolyl-quinazolinone derivatives and methods of use” (Gilead Calistoga LLC, priority 2009, dated 2013)
# Like-named read-outs stand apart in the source and are kept apart here.
# Legend:
# p110δ [1] = target: p110δ (Homo sapiens, UniProt O00329); test: In vitro activity against p110 isoforms, biochemical assays (FIG. 5A); settings: versus p110alpha, p110beta, p110 gamma isoforms
# Description: (§1) The in vitro activity of 1 and atropisomers, 1(S) and 1(R), have similar profiles in various isoforms of p110 inhibition as shown in FIGS. 5A and 5B. […] Although their in vitro potency appears to be similar, there are surprising in vivo differences observed between 1(S) and 1(R) as discovered in pharmacokinetic studies, mainly relating to the increased exposure of 1(S) and decreased exposure of 1(R) in the subject.
# Target sequence in this assay (P27986 whole entry partner, one chain of several, canonical isoform): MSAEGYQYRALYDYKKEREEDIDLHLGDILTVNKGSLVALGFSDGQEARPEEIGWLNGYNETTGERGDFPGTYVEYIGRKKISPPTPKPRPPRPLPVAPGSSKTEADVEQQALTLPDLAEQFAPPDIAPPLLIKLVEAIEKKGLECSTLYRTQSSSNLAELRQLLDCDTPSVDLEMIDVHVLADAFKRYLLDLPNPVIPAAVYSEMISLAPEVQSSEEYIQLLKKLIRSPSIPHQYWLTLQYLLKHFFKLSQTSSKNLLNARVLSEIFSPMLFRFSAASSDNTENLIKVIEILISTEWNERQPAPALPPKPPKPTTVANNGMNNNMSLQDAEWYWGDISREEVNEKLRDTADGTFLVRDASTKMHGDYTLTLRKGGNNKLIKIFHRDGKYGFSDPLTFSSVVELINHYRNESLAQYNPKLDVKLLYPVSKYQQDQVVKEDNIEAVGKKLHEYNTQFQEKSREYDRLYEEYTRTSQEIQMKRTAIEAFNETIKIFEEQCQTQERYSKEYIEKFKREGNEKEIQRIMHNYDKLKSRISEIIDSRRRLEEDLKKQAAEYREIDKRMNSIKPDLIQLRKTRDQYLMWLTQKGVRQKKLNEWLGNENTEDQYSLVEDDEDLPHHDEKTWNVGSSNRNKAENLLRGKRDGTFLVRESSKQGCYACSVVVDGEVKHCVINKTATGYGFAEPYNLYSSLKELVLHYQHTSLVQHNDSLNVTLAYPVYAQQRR
# p110δ [2] = target: T1, p110δ (Homo sapiens, UniProt O00329); test: In vitro activity against p110 isoforms, cell-based assays (FIG. 5B); settings: versus other p110 isoforms
# T1 sequence (O00329 1-1044): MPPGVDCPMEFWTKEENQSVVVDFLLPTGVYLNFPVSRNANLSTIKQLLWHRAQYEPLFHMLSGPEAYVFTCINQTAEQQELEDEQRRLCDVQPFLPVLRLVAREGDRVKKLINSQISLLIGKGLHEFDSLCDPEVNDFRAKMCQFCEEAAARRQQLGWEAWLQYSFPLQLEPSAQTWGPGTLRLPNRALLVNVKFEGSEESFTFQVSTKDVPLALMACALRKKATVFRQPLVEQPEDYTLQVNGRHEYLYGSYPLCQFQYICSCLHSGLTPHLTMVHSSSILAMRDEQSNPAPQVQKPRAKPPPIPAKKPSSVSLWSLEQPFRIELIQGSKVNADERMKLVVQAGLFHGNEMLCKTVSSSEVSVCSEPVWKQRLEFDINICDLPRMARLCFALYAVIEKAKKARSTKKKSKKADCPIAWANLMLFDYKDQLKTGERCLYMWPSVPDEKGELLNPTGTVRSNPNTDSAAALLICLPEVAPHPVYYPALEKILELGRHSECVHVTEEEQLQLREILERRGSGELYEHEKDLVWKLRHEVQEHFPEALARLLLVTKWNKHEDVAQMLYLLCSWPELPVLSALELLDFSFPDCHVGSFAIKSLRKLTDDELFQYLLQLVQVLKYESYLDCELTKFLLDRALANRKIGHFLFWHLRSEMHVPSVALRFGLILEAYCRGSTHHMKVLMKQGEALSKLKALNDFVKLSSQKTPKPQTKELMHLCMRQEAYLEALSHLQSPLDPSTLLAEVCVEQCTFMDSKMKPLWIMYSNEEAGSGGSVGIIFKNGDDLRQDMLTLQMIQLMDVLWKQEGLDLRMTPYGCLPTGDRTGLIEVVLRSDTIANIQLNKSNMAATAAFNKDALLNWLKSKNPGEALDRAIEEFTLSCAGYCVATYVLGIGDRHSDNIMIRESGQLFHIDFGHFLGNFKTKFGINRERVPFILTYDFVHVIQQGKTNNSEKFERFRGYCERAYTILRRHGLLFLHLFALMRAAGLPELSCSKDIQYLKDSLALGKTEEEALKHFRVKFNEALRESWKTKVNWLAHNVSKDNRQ
# Description: as §1
# [3] = Solubility in a series of aqueous solvents (FIG. 4); assay type: physicochemical; settings: variety of aqueous solutions
# [4] = Plasma concentration of atropisomers in rats after oral dosing with racemic 1 (FIG. 6); assay type: in vivo; settings: female rats, single 50 mg/kg oral dose of racemic 1, 8 hours after dosing
# [5] = Plasma concentration of atropisomers in dogs after oral dosing with racemic 1 (FIG. 7); assay type: in vivo; settings: female dogs, single 50 mg/kg oral dose of racemic 1
# Experimental: The tagged racemic mixture or separated atropisomers were administered in rats, dogs, and human subjects through oral and i.v. routes. The compounds were dissolved in PEG 100 such that any difference in dissolution rates would not play a role in the pharmacokinetic profile of the compounds. […] After administration of the compound, blood plasma of the subjects were sampled over time and evaluated by analytical HPLC methods developed to identify and measure concentrations of compound 1(S) or 1(R) present in the sample. It was observed that the most abundant isomer measured in the plasma is compound 1(S), which accounts for 70-80% of exposure to the subject.
# In approximately 1 hour after dosing the maximum concentration of compounds 1(S) and 1(R) is reached. At that point, the concentration of 1(R) is less than half the concentration of compound 1(S). […] These large differences in pharmacokinetic behavior were not predictable.
# [6] = Interconversion of atropisomers in blood plasma; assay type: in vivo; settings: within 4 hours after administration of the atropisomer
# Description: Another possible explanation for the difference in exposure is that 1(R) is interconverted to 1(S) over time. […] However, this small amount of conversion should only account for a fraction of the difference in exposure rates in vivo and other factors, such as selective elimination of 1(R), are likely to play the major role in the lowered exposure rate of 1(R).
# [7] = Elimination in urine by LC-MS; assay type: in vivo; settings: compared with 1(S)
# [8] = Metabolic products in rat urine by LC-MS (FIG. 12); assay type: in vivo; settings: rats, single 50 mg/kg oral dose of the atropisomer
# Experimental: A single 50 mg/kg oral dose of either atropisomer 1(S) or 1(R) was administered to rat subjects. The rat urine was subsequently sampled and analyzed using LC-MS instrumentation.
# [9] = human subjects
# [10] = for plasma concentration at 24 hours: female rats, single dose 1.5 mg/kg
# [11] = human; for AUClast / Cmax / T½: 25 mg racemate daily for 7 days, 40 nCi labeled spike on day 4
# [12] = human subject, oral radiolabeled atropisomer; for metabolite formation in plasma, 72 hours: 72 hours after administration
# clinical = settings: human, plasma, po, 100 mg
# [13] = Plasma concentration in rats after single oral dose of 1(S) or 1(R) (FIG. 9B); assay type: in vivo, rat; settings: female rats, single oral dose 1.5 mg/kg, 12 hour time point
# [14] = Plasma concentration in human subjects after a single oral dose of 100 mg or 10 mg (FIG. 10); assay type: in vivo
# [15] = Human pharmacokinetics, racemic mixture versus 1(S) at 10 mg once daily; assay type: in vivo
# Experimental: Human pharmacokinetic was obtained after both the racemic mixture and 1(S) were administered at 10 mg once daily. […] Since the dose is low and well absorbed, as evidenced by the determination of 100% bioavailability, it is likely that the 1(R) metabolism is greater. The greater extent and complexity of 1(R) metabolism was supported by studies on human and rat in vivo metabolism as well as in vitro studies of human liver microsomes and protein binding.
# [16] = system: collagen induced arthritis (CIA) rats; test: Collagen induced arthritis (CIA) rats; assay type: in vivo, rat; settings: compared to vehicle
# [17] = compounds dissolved in PEG 100
# in vivo = settings: female, Sprague Dawley, rat, iv
# [18] = Metabolites in human plasma; settings: human subjects dosed with the substance
# [19] = Metabolites in human urine by LC/MS/MS; settings: humans
# Description: Urine was collected from humans dosed the racemic mixture and evaluated for possible metabolites using LC/MS/MS.
# [20] = single 100 mg oral dose of racemic 1
# [21] = female SD rats, single bolus i.v.
# [22] = 25 mg racemate daily, labeled spike on day 4, after day 1
smiles,measurement,setting,value
"Cc1ccccc1-n1c(Cn2cnc3c(N)ncnc32)nc2cccc(C)c2c1=O (single isomer, unassigned) [Compound 1(R), 2-((6-amino-9H-purin-9-yl)methyl)-5-methyl-3-o-tolylquinazolin-4(3H)-one]",p110δ inhibition in biochemical assays,p110δ [1],selective p110δ inhibition
same,p110δ inhibition in cell-based assays,p110δ [2],selective p110δ inhibition
same,solubility differences between 1(S) and 1(R),[3],Modest solubility differences
same,average plasma concentration of 1(R) relative to 1(S),[4],approximately one-fourth
same,plasma concentration of 1(R) relative to 1(S) at maximum concentration,[5],less than half
same,time to maximum plasma concentration,[5],approximately 1 hour
same,conversion to the other atropisomer in blood plasma,[6],approximately 14%
same,elimination in urine,[7],preferentially eliminated in urine
same,metabolic products found in urine,[8],more metabolic products
same,plasma concentration of 1(R) relative to 1(S) at maximum concentration,[9]; [20],less than half
same,Vz of 1(R) relative to 1(S) or racemic mixture,[10]; [21],about 2.6 times
same,half life of 1(R) relative to 1(S) or racemic mixture 1,[10]; [21],about 2.8 times
same,plasma concentration at 24 hours,[10],very low
same,AUClast,[11],21676 neq*h/mL
same,Cmax,[11],1946 neq/mL
same,concentration of 14C radiolabeled material in blood plasma,"[11]; 25 mg racemate daily, labeled spike on day 4, 50 hours from dosing",10-50 neq/mL
same,concentration of 1(R) relative to 1(S),[11]; [22],about one-fourth
same,concentration of 14C radiolabeled material in blood plasma,[11]; [22],about 500 neq/mL
same,"metabolite formation in plasma, 72 hours",[12],primarily the metabolites are detected
same,half-life,"clinical; half-life, human subjects, single 100 mg oral dose of racemic 1",~9 h
"Cc1ccccc1-n1c(Cn2cnc3c(N)ncnc32)nc2cccc(C)c2c1=O (single isomer, unassigned) [Compound 1(S), 2-((6-amino-9H-purin-9-yl)methyl)-5-methyl-3-o-tolylquinazolin-4(3H)-one]",p110δ inhibition in biochemical assays,p110δ [1],selective p110δ inhibition
same,p110δ inhibition in cell-based assays,p110δ [2],selective p110δ inhibition
same,solubility differences between 1(S) and 1(R),[3],Modest solubility differences
same,time to maximum plasma concentration,[5],approximately 1 hour
same,plasma concentration of 1(S) versus 1(R),[13],greatly exceed
same,maximum plasma concentration of 1(S) relative to 1(R),[14]; single oral dose of 10 mg,about double
same,maximum plasma concentration of 1(S) relative to 1(R),[14]; single oral dose of 100 mg,over 2 times
same,conversion to the other atropisomer in blood plasma,[6],less than 1%
same,metabolic products found in urine,[8],mainly one compound
same,Cmax of 1(S) greater than racemic mixture,[15],30%
same,increase of AUC0-24 of 1(S) over racemic mixture,[15]; Day 1,2.4 fold
same,increase of AUC0-24 of 1(S) over racemic mixture,[15]; Day 7,40%
same,anti-collagen antibody levels,[16]; FIG. 15,reduction of collagen antibody levels
same,X-ray score (radiographic assessment),[16]; FIG. 16,reduction in the X-ray score
same,"histopathology, dark areas of tissue images","[16]; similar to MTX, FIGS. 17A-D",reduced
same,arthritis score,"[16]; versus days post compound dosing, FIG. 14",activity in reducing the severity of arthritis
same,share of exposure to the subject (most abundant isomer in plasma),[17],70-80%
same,half-life in humans (in words),"[9]; oral racemic 1, greater than in dogs",several days
same,share of the exposure at the maximum concentration point,[9]; [20],approximately 70%
same,plasma concentration of 1(S) relative to 1(R),"[9]; single 100 mg oral dose of racemic 1, 72 hours post-dosing",over 10 times
same,plasma concentration at 24 hours,[10],very low
same,AUClast,[11],90511 neq*h/mL
same,Cmax,[11],3930 neq/mL
same,T½,[11],63.9 h
same,AUC of 1(S) relative to 1(R),[11]; data of FIG. 11,over 4 times
same,Cmax of 1(S) relative to 1(R),[11]; data of FIG. 11,twice
same,half-life of 1(S) relative to 1(R),[11]; data of FIG. 11,6 times
same,"metabolite formation in plasma, 1 hour",[12]; 1 hour after administration,remains largely unmodified
same,"metabolite formation in plasma, 72 hours",[12],still less than the amount of the parent compound
same,AUC,"in vivo; plasma, 1.5 mg/kg",865 ± 212 ng·h/mL
same,Vd,"in vivo; plasma, 1.5 mg/kg",5.77 ± 2.74 L/kg
same,clearance,"in vivo; plasma, 1.5 mg/kg",30.6 mL/min/kg
same,half-life,"in vivo; plasma, 1.5 mg/kg",2.5 ± 1.6 h
same,half-life,clinical,> 72 h
same,number of metabolites observed in plasma,[18],one
"Cc1ccccc1-n1c(Cn2cnc3c(N)ncnc32)nc2cccc(C)c2c1=O (single isomer, unassigned) [Compound 1, 2-((6-amino-9H-purin-9-yl)methyl)-5-methyl-3-o-tolylquinazolin-4(3H)-one]",p110δ inhibition in biochemical assays,p110δ [1],selective p110δ inhibition
same,p110δ inhibition in cell-based assays,p110δ [2],selective p110δ inhibition
same,AUClast,[11],"51,032 ± 22,383 neq*h/mL"
same,Cmax,[11],2780 ± 1163 neq/mL
same,T½,[11],69.9 ± 26.6 h
same,AUC,"in vivo; in vivo, 3 mg/kg",1970 ± 243 ng·h/mL
same,Vd,"in vivo; in vivo, 3 mg/kg",5.4 ± 1.57 L/kg
same,clearance,"in vivo; in vivo, 3 mg/kg",26 mL/min/kg
same,half-life,"in vivo; in vivo, 3 mg/kg",2.5 ± 0.7 h
same,number of metabolites observed in plasma,[18]; listed as racemic mixture,2
same,number of metabolites confirmed in urine,"[19]; authentic racemic standards, achiral method",5
same,total number of metabolites observed in urine,[19]; counting atropisomers of metabolites,9
